Drawing on PubChem BioAssay AID1322 (NMMLSC, 2008), this text covers inhibition and outcome for 89 molecules.

Activity calls are given as the source filed them. No rule for the calls is given here.

In this test the target is Bcl-2-like protein 1 (Homo sapiens) (UniProt Q07817). The experiment in a line: Bim-Bcl-XL interaction inhibitors, potency, dose response, biochemical, multiplexed, bead flow cytometry, human Bcl-XL (AID 1322). As to inhibition: test concentration not given here. To be noted: Bead-based flow cytometry, Bim peptide-Bcl-XL binding, MCF; for inhibition: active compounds read high.
Bcl-2-like protein 1 (Homo sapiens), sequence (Q07817 whole entry, looked up): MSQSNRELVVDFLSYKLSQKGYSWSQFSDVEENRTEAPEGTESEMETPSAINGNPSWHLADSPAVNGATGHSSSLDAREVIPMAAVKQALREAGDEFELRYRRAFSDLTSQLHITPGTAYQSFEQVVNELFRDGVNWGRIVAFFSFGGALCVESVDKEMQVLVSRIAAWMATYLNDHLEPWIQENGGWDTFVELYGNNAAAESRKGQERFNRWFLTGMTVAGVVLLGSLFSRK

Consider `CN(C)c1ncc(C2=C(Cl)C(=O)C(N3CCCC3)=C(Cl)C2=O)s1`, for which the inhibition entry was “inactive”.
The same measure, in the same setting: to `O=c1[nH]c2ccc(N=Cc3c(O)ccc4cc(Br)ccc34)cc2[nH]1` belongs “inactive”.
On the same count and under the same terms, to `CCN(CC)c1ccc(NC(=O)c2ccccc2)cc1S(=O)(=O)Nc1ccccc1OC` belongs “inactive”.
As to `COc1ccc(C(=O)NC(=S)N2CCNC(=O)C2)cc1Br`, the outcome was inactive.
For the molecule `C/C(=N\NC(=O)COc1ccc(C(C)(C)C)cc1)c1ccc2c(c1)OCCO2`, the inhibition entry was “inactive”.
`COc1ccc(CN(CC(=O)NC2CCCC2)C(=O)CCC(=O)Nc2cc(C)on2)cc1`: the result was inactive.
Consider `Cc1occc1C(=O)NNC(=S)NCc1ccccc1`, for which the inhibition result is “inactive”.
The same measure, in the same setting: to `O=C(Nc1ccc(N2CCOCC2)cc1)Nc1ccc2nc(-c3ccco3)c(-c3ccco3)nc2c1` belongs “inactive”.
With `O=C1c2ccccc2C(=O)N1c1cccc2cccnc12`, the result was inactive.
On to `Clc1ccc2c(N/N=C/c3cccc(Br)c3)ccnc2c1`, for which the inhibition entry is “inactive”.
Turning to `O=C(Cc1ccccc1)OCCNC(=O)c1cccnc1`, the inhibition entry was “inactive”.
In the case of `COc1ccc(Cl)cc1-n1c(C)cc(C=O)c1C`, the inhibition entry is “inactive”.
The same measure, in the same setting: the entry for `Cc1cccc(N=C2NC(=O)/C(=C/C=C/c3ccco3)S2)c1C` is “inactive”; for `CCOCCOc1nc2c(c(=O)n(C)c(=O)n2C)n1CCc1ccccc1` it is “inactive”.
As for `O=C(O)c1ccc(NC2=C/C(=N/S(=O)(=O)c3ccccc3)c3ccccc3C2=O)cc1`, the inhibition entry is “inactive”.
The same measure, in the same setting: the entry for `O=[N+]([O-])c1ccc(-c2cn(-c3ccc(Cl)cc3)c(=S)[nH]2)cc1` is “inactive”; for `COC(=O)c1ccc(C)c(NC(=O)CCNC(=O)c2ccc([N+](=O)[O-])cc2)c1` it is “inactive”.
Consider `COc1cc(/C=C2/NC(=O)N(Cc3ccccc3F)C2=O)cc(OC)c1O`, for which the inhibition result is “inactive”.
For `O=C(NCc1ccccc1)C(=O)Nc1nc(C23CC4CC(CC(C4)C2)C3)cs1`, the inhibition result was “inactive”.
On the same count and under the same terms, to `COc1cccc(C(=O)/C=C/Nc2ccc(S(=O)(=O)Nc3onc(C)c3C)cc2)c1` belongs “inactive”.
Same read-out and setting: to `CN=c1scc(C)n1/N=C/c1ccc(O)c(O)c1O` belongs “inactive”.
Still for that read-out and setting: the entry for `CCOc1ccc(NCc2ccccc2OCc2cccc(F)c2)cc1` is “inactive”.
For the molecule `CCOC(=O)c1[nH]cnc1C(=O)NC(C)C`, the inhibition entry is “inactive”.
Still for that read-out and setting: to `O=C(NCCCO)Nc1ccc2nc(-c3ccco3)c(-c3ccco3)nc2c1` belongs “inactive”.
On to `CCOC(=O)C1=C(CC)Nc2ccccc2N=C1NC(=O)c1ccc(S(=O)(=O)N2CCOCC2)cc1`, for which the outcome was inactive.
As for `CN(CCc1ccccn1)C(=O)CCC1CCCN(C(=O)NC2CCCCC2)C1` (centres undefined), the outcome was inactive.
On the same count and under the same terms, to `CCN(CC)c1ccc(NC2=C(Cl)C(=O)c3ccccc3C2=O)cc1` belongs “inactive”.
In the case of `COc1cc(N=c2ssnc2Cl)c(OC)cc1Cl`, the inhibition entry is “inactive”.
Same read-out and setting: the entry for `CN(C)c1ccc(C(=O)/C=C/c2ccc(Br)cc2)cc1` is “inactive”.
As to `CC(C)(C)C1CCC(=NNC(=O)c2cc3c(s2)CCCC3)CC1` (centres undefined), the inhibition result is “inactive”.
On to `Cc1cc2nc(/C(C#N)=C/c3ccncc3)[nH]c2cc1C`, for which the inhibition entry is “inactive”.
In the case of `Cc1cc(C)nc(/N=C(\N)N2CCc3ccccc32)n1`, the inhibition entry was “inactive”.
Still for that read-out and setting: the entry for `CN(C)c1ccc(/C=C2/SC(=O)N(CCN=C3NS(=O)(=O)c4ccccc43)C2=O)cc1` is “inactive”; for `Cc1cc(Cl)ccc1N=c1ssnc1Cl` it is “inactive”; for `COc1cccc2c(SCC(=O)N/N=C/c3ccccc3)cc(C)nc12` it is “inactive”.
For `Cc1cc(N2CCN(C)CC2)nc2ccc(NC(=S)N3CCN(c4cccc(Cl)c4)CC3)cc12`, the inhibition result is “inactive”.
With `O=C(C[n+]1ccc(-c2nnc3n2CCC3)cc1)c1ccc(Cl)cc1`, the outcome was inactive.
Turning to `CC1(C)Cc2c(ccc3ccccc23)/C(=C/C(=O)N2CCCCC2)N1`, the inhibition entry is “inactive”.
`O=C(O)/C=C/C(=O)NNC(=O)c1ccc(Br)cc1`: the outcome was inactive.
On to `c1ccc2c(N3CCOCC3)nc(N3CCOCC3)nc2c1`, for which the inhibition entry was “inactive”.
The same measure, in the same setting: the entry for `Oc1ccc(C=NCC2COc3ccccc3O2)cc1` (centres undefined) is “inactive”; for `COC(=O)c1c(C(=O)OC)c2cccc3cc(-c4ccccc4)c4ccc1c4n32` it is “inactive”.
As for `CN(CC(=O)O/N=C(\N)c1ccc([N+](=O)[O-])cc1)S(=O)(=O)c1ccccc1`, the inhibition entry was “inactive”.
Regarding `CC1=NN(c2ccc(C)cc2)C(=O)/C1=C\c1ccc(Br)s1`, the inhibition entry is “inactive”.
The same measure, in the same setting: to `OC(COc1ccc2ccccc2c1)CN1CCCC1` (centres undefined) belongs “inactive”.
In the case of `Cc1ccc(C(=O)NNC(=O)c2ccc3ncccc3c2)cc1`, the outcome was inactive.
As to `O=[N+]([O-])c1c(NCCCO)cc(Sc2nc3ccccc3s2)c2nonc12`, the inhibition result was “inactive”.
Still for that read-out and setting: to `O=C1NCCN1C(=O)N(c1ccccc1)c1ccccc1` belongs “inactive”; to `CN1C2C=C3C(C#N)=C(N)C(C#N)(C#N)[C@@H](c4ccsc4)[C@@H]3C1CC2` (some centres undefined), “inactive”.
With `COC(=O)c1[nH]c2ccccc2c1NC(=O)c1ccccc1[N+](=O)[O-]`, the outcome was inactive.
With `O=C(Nc1nnc(C2CC2)s1)C1Cc2ccccc2CN1S(=O)(=O)c1ccccc1F` (centres undefined), the inhibition result was “inactive”.
On the same count and under the same terms, to `COc1ccccc1OCc1ccc(C(=O)Nc2ccccc2F)cc1` belongs “inactive”.
For `O=C(C1CCC(Cn2c(=S)[nH]c3ccccc3c2=O)CC1)N1CCN(c2ccccn2)CC1` (centres undefined), the result was inactive.
With `CC(=O)OCCNc1cc(Sc2nc3ccccc3[nH]2)c2nonc2c1[N+](=O)[O-]`, the inhibition entry was “inactive”.
On the same count and under the same terms, the entry for `CC(=O)OCCCNc1cc(Sc2nc3ccccc3s2)c2nonc2c1[N+](=O)[O-]` is “inactive”; for `O=C(NCc1ccccc1)c1ccc2nc(-c3ccco3)c(-c3ccco3)nc2c1` it is “inactive”.
Consider `COc1ccc(C2C(C#N)=C(C)NC3=C2S(=O)(=O)c2ccccc23)cc1` (centres undefined), for which the inhibition entry is “inactive”.
Still for that read-out and setting: to `COc1ccc(OC)c(-n2c(-c3ccc(C)cc3)n[nH]c2=S)c1` belongs “inactive”; to `CNc1ccc(Br)cc(C(=O)/C=C/c2cccc(OC)c2OC)c1=O`, “inactive”; to `COc1cccc(NC(=O)CSc2nncn2N)c1`, “inactive”.
The same measure, in the same setting: the entry for `CCN=c1scc(C)n1/N=C/c1ccc(O)c(O)c1O` is “inactive”; for `CC(C)(C)C(=O)NC(NC(=S)Nc1ccc(S(N)(=O)=O)cc1)C(Cl)(Cl)Cl` (centres undefined) it is “inactive”.
As to `Cc1ccc(NC(=S)N2CCn3cccc3C2c2cccnc2)cc1` (centres undefined), the outcome was inactive.
Same read-out and setting: the entry for `O=C(N/N=C/c1cccnc1)c1cccc(S(=O)(=O)N2CCCC2)c1` is “inactive”; for `CCSc1ncnc2sc(C)c(C)c12` it is “inactive”; for `COc1ccc(/C=C/C(=O)c2cc(Br)ccc(=O)c2O)cc1` it is “inactive”.
With `CCOC(=O)c1snc(-c2ccc(F)cc2)c1N`, the inhibition entry was “inactive”.
In the case of `COc1ccc(C2(NC(C)=O)CCN(C(=O)c3ccco3)CC2)cc1`, the inhibition entry is “inactive”.
For the molecule `COc1cccc(/C=C2/SC(=O)N(C)C2=O)c1OCc1ccc(C(=O)O)cc1`, the inhibition result was “inactive”.
On the same count and under the same terms, to `COc1ccc(NC(=O)c2c(F)cccc2F)cc1S(=O)(=O)Nc1ccc(Br)cc1` belongs “inactive”; to `CCSc1nnc(NC(=O)c2c(-c3ccccc3Cl)noc2C)s1`, “inactive”; to `Cn1c(N)c(C(=O)COC(=O)c2cc(-c3ccco3)nc3ccccc23)c(=O)n(Cc2ccccc2)c1=O`, “inactive”.
Consider `Cc1cccc(NC(=S)N2CCn3cccc3C2c2cccnc2)c1` (centres undefined), for which the inhibition result is “inactive”.
On the same count and under the same terms, to `COc1cc(C=Nc2cccc(C)c2)c(O)c([N+](=O)[O-])c1` belongs “inactive”; to `COc1ccc(N=C2NC(=O)/C(=C\C=C\c3ccco3)S2)cc1`, “inactive”; to `Cc1ccc(NC2=C(Cl)C(=O)c3ccccc3C2=O)cc1`, “inactive”.
For the molecule `O=C(N/N=C/c1ccc(O)c(O)c1O)/C(=C/c1ccc([N+](=O)[O-])cc1)NC(=O)c1ccccc1`, the inhibition entry was “inactive”.
The same measure, in the same setting: to `Cc1ccccc1-n1nc(SCC(=O)O)sc1=S` belongs “inactive”; to `C=CCn1c(SCC(=O)Nc2ccc3c(c2)OCO3)nnc1-c1cc(Br)ccc1O`, “inactive”.
In the case of `CN(Cc1ccccc1)C(=O)c1[nH]cnc1C(=O)N[C@@H](CCCCNC(=O)OC(C)(C)C)C(=O)OC(C)(C)C`, the inhibition entry was “inactive”.
Same read-out and setting: to `Cc1ccc(-c2cc(-c3ccccc3Cl)c(C#N)c(N)n2)o1` belongs “inactive”; to `O=C(NCCCN1CCCC1=O)NC1CCCCC1`, “inactive”.
On the same count and under the same terms, the entry for `c1csc(C2=Nn3c(nnc3-c3ccncc3)SC2)c1` is “inactive”; for `O=C1CSc2ccc(C(=O)Nc3cccc(S(=O)(=O)Nc4ccc(Br)cc4)c3)cc2N1` it is “inactive”.
Consider `CCn1c(SCC(=O)Nc2ccccc2-c2ccccc2)nnc1-c1ccoc1C`, for which the inhibition result is “inactive”.
The same measure, in the same setting: to `C#CCOCCOCCOCCNc1nc(N2CCN(C(=O)[C@H]([C@@H](C)CC)n3cc([C@@H](N)CC(C)C)nn3)CC2)nc(N2CCN(C(=O)[C@H](Cc3cc4ccccc4[nH]3)n3cc([C@@H](N)Cc4ccc(O)cc4)nn3)CC2)n1` belongs “inactive”; to `Cc1ccc(-c2cc(-c3ccc(F)cc3)nc(N)c2C#N)o1`, “inactive”; to `COC(=O)/C(=C/c1ccc(F)cc1)NC(C)=O`, “inactive”.
Still for that read-out and setting: the entry for `COc1ccccc1Nc1nc(-c2c(C)nc3ncccn23)cs1` is “inactive”.
